Source: patent publication US5824647A, “Chemotactic wound healing peptides” (priority 1995, dated 1998)
Entries after “also recorded” stand apart in the source; their conditions may differ.

Tests used:
[1] = tested on: infant foreskin fibroblasts; assay: Collagen production by fibroblasts (modified Peterofsky-Diegelman assay); format: cell-based, human; conditions: [3H]proline incorporation into collagenase-sensitive protein
Method: The peptides of the invention were also found to stimulate collagen production by fibroblasts. Collagen production by fibroblasts in response to the peptides of the present invention was measured utilizing a modified Peterofsky-Diegelman assay. The assay is used to determine whether the peptides of the invention stimulate or inhibit collagen production by fibroblasts.
Low passage (4-12 subpassages) infant foreskin fibroblasts were plated out at a density of 10^5 cells/well in Falcon 3008 multiwell plates in complete maintenance medium containing 10% FCS. After cells reached confluency (72 hr), the medium was changed daily for 3 days, each time being replaced with serum-free maintenance medium containing fresh ascorbic acid. Samples (50 μl) were added to triplicate wells containing 450 μl serum-free MEM supplemented with fresh ascorbic acid and [^3 H]-proline (sp. act. 20 Ci/mmole), but no non-essential amino acids. After an additional 24 hr of culture, supernatants were reacted with protease-free bacterial collagenase to digest all collagen. Similar aliquots of unreacted supernatants and bacterial collagenase-treated supernatants were precipitated with cold 10% trichloroacetic acid (TCA) and were centrifuged for 5 minutes in a Beckman microfuge. Aliquots of the supernatants, after TCA precipitated proteins were pelleted, were placed in vials containing Hydrofluor and then were counted in a scintillation counter. CPM from TCA precipitated supernatants not reacted with bacterial collagenase were subtracted from each culture. The resulting CPM was a reflection of the collagen produced by that culture.
A modified Peterofsky-Diegelmann assay was used to screen peptide samples for their ability to stimulate or inhibit collagen production. Low passage (4-12 subpassages) infant foreskin fibroblast were plated out at a density of 10^5 cells/well of Falcon 3008 multiwell plates in complete maintenance medium containing 10% FCS. After cells reached confluency (72 hr) the medium was changed daily for 3 days, each time being replaced with serum-free maintenance medium containing fresh ascorbic acid. Samples ([…]) were added to triplicate wells containing […] serum free MEM supplemented with fresh ascorbic acid and [^3 H]-proline (sp. act. 20 Ci/mmole), but no non-essential amino acids. After an additional 24 hours of culture, supernatants were reacted with protease-free bacterial collagenase to digest all collagen. Similar aliquots of unreacted supernatants and bacterial collagenase-treated supernatants were precipitated with cold 10% trichloroacetic acid (TCA) and were centrifuged for 5 minutes in a Beckman microfuge. Aliquots of the supernatants, after TCA precipitated proteins were pelleted, were placed in vials containing Hydrofluor and then were counted in a scintillation counter. CPM from TCA precipitated supernatants not reacted with bacterial collagenase were subtracted from each culture. The resulting CPM was a reflection of the collagen produced by that culture.
Collagen production was measured following administration of the various 7-mer peptides 368-374 (SEQ ID NOs. 1-5) to fibroblasts. Peptides […] (SEQ ID NO. 1), LYYIGKT (SEQ ID NO. 2), LYYVGRT (SEQ ID NO. 3), IYYVGRN (SEQ ID NO. 4) and IYYVGRT (SEQ ID NO. 5) were synthesized by the Merrifield technique, purified by HPLC, and tested at different concentrations in the same assay for their ability to stimulate production of collagen in confluent cultures of infant foreskin fibroblasts. Collagen production was measured by incorporation of [^3 H]proline into collagenase-sensitive protein. All samples were tested in triplicate, and values represent the mean of triplicate determinations. Data are expressed as "% stimulation" of collagen production relative to control production in cultures with plain culture medium only added. […]

[2] = tested on: fibroblasts; assay: HLA-DR, fibroblast effects; format: cell-based; design: key: NE = No Effect; conditions: Table II summary
[3] = tested on: human peripheral blood monocytes; assay: Monocyte chemotaxis in modified Boyden chambers; format: cell-based; conditions: for monocyte chemotaxis / migration (in words): peptide in lower compartment of modified Boyden chamber; for Mean Monocytes per 20 OIF + SEM: Experiment 2, peptide in lower compartment
Text: Human peripheral blood neutrophils and monocytes, isolated from whole blood using standard techniques may also be used in the chemotaxis assays, in a manner similar to infant foreskin fibroblasts, to measure the chemotactic activity of the peptides towards inflammatory cells. Such cells may also be maintained in supplemented MEM as above, to which 5-10% FCS may be added. When using neutrophils and monocytes, instead of fibroblasts, the polycarbonate filters used in the modified Boyden chambers had pore sizes of 2 and 3 microns, respectively. As above, all assays were carried out in quadruplicate.
The following 7-mer peptides (peptides 368-374, corresponding to amino acids 368-374 of human TGF-β1): VYYVGRK (SEQ ID NO. 1), LYYIGKT (SEQ ID NO. 2), LYYVGRT (SEQ ID NO. 3), IYYVGRN (SEQ ID NO. 4) and IYYVGRT (SEQ ID NO. 5) were synthesized by the Merrifield technique, purified by HPLC, and tested at different concentrations in the same assay for their ability to stimulate chemotaxis of human peripheral blood monocytes in vitro modified Boyden chambers.

| Substance | collagen production by fibroblasts (in words) [1] | FIBROBLAST EFFECTS HLA-DR [2] | monocyte chemotaxis / migration (in words) [3] | Mean Monocytes per 20 OIF + SEM ([3]; Media added to upper compartment) | Mean Monocytes per 20 OIF + SEM ([3]; TGF-β1 (50 pg/ml) added to upper compartment) | monocyte chemotaxis / migration (in words) ([3]; listed as VYYVGRK) |
| --- | --- | --- | --- | --- | --- | --- |
| 340-391: synthetic peptide corresponding to sequence 340-391 of TGF-β1; positive chemotactic control (VLALYNQHNPGASAAPCCVPQALEPLPIVYYVGRKPKVEQLSNMIVRSCKCS; printed: Val Leu Ala Leu Tyr Asn Gln His Asn Pro Gly Ala Ser Ala Ala Pro Cys Cys Val Pro Gln Ala Leu Glu Pro Leu Pro Ile Val Tyr Tyr Val Gly Arg Lys Pro Lys Val Glu Gln Leu Ser Asn Met Ile Val Arg Ser Cys Lys Cys Ser) [Peptide 340-391] | stimulated to some degree | NE | migrated in a dose dependent fashion |  |  |  |
| PLPIVYYVGRKPKVE [Peptide 364-378, 15-mer peptide 364-378 of TGF-β1] | stimulated to some degree | NE | induced migration of fibroblasts, monocytes and neutrophils in a dose dependent fashion |  |  |  |
| VYYVGRK [Peptide 368-374, 7-mer corresponding to amino acids 368-374 of TGF-β1] | stimulated to some degree; also recorded: does stimulate fibroblast chemotaxis and synthesis of collagen and hyaluronic acid | NE | induced migration of fibroblasts, monocytes and neutrophils in a dose dependent fashion | 138 ± 8 Monocytes per 20 OIF | 50 ± 5 Monocytes per 20 OIF | induced monocyte chemotaxis at all of the concentrations tested |
| YSKVLALYNQHNPGASAAPC (YSKVLALYNQHNPGASAAPC) [Peptide 337-356] | stimulated to some degree | NE |  |  |  |  |
